Assay results taken from US20120053053A1, “PYRIMIDINE DERIVATIVES AND THEIR USE AS HERBICIDES” (SYNGENTA CROP PROTECTION, LLC, priority 2009, published 2012).

Key:
Format in all cases: in vivo
Solanum nigrum (SOLNI) [1] = assay: Pre-emergence biological efficacy (percentage damage); conditions: Solanum nigrum, 312 h, dose 1,000 g/ha, evaluated after 13 days, 100=total damage, 0=no damage
Outline: (§1)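 Visual injury on a 0–100 scale was recorded 13 days after a spray giving 250 or 1000 g/ha of compound, applied one day post-sowing.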

[2] = tested on: Ipomea hederaceae (IPOHE); assay: as above; conditions: Ipomoea hederacea, 312 h, dose 1,000 g/ha, evaluated after 13 days, 100=total damage, 0=no damage
Outline: as §1

[3] = tested on: Echinochloa crus-galli (ECHCG); assay: as above; conditions: Echinochloa crus-galli, 312 h, dose 1,000 g/ha, evaluated after 13 days, 100=total damage, 0=no damage
Outline: as §1

Setaria faberi (SETFA) [4] = assay: as above; conditions: Setaria faberi, 312 h, dose 1,000 g/ha, evaluated after 13 days, 100=total damage, 0=no damage
Outline: as §1

[5] = tested on: Alopecurus myosuroides (ALOMY); assay: as above; conditions: Alopecurus myosuroides, 312 h, dose 1,000 g/ha, evaluated after 13 days, 100=total damage, 0=no damage
Outline: as §1

[6] = tested on: Amaranthus retoflexus (AMARE); assay: as above; conditions: Amaranthus retroflexus, 312 h, dose 1,000 g/ha, evaluated after 13 days, 100=total damage, 0=no damage
Outline: as §1

Solanum nigrum (SOLNI) [7] = assay: Post-emergence biological efficacy (percentage damage); conditions: Solanum nigrum, 312 h, dose 1,000 g/ha, evaluated after 13 days, 100=total damage, 0=no damage
Outline: (§2)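 Seedlings grown 8 days in soil in a glasshouse (24/16 °C day/night, 14 h light, 65% humidity), then sprayed with compound in acetone/water (50:50) with 0.5% Tween 20 at 250 or 1000 g/ha. Damage scored visually after 13 days (0 = none, 100 = total).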

[8] = tested on: Ipomea hederaceae (IPOHE); assay: as above; conditions: Ipomoea hederacea, 312 h, dose 1,000 g/ha, evaluated after 13 days, 100=total damage, 0=no damage
Outline: as §2

[9] = tested on: Echinochloa crus-galli (ECHCG); assay: as above; conditions: Echinochloa crus-galli, 312 h, dose 1,000 g/ha, evaluated after 13 days, 100=total damage, 0=no damage
Outline: as §2

Setaria faberi (SETFA) [10] = assay: as above; conditions: Setaria faberi, 312 h, dose 1,000 g/ha, evaluated after 13 days, 100=total damage, 0=no damage
Outline: as §2

[11] = tested on: Alopecurus myosuroides (ALOMY); assay: as above; conditions: Alopecurus myosuroides, 312 h, dose 1,000 g/ha, evaluated after 13 days, 100=total damage, 0=no damage
Outline: as §2

[12] = tested on: Amaranthus retoflexus (AMARE); assay: as above; conditions: Amaranthus retroflexus, 312 h, dose 1,000 g/ha, evaluated after 13 days, 100=total damage, 0=no damage
Outline: as §2

SMILES | pest or weed control at 1000 g/ha (Solanum nigrum (SOLNI) [1]) | pest or weed control at 1000 g/ha [2] | pest or weed control at 1000 g/ha [3] | pest or weed control at 1000 g/ha (Setaria faberi (SETFA) [4]) | pest or weed control at 1000 g/ha [5] | pest or weed control at 1000 g/ha [6] | pest or weed control at 1000 g/ha (Solanum nigrum (SOLNI) [7]) | pest or weed control at 1000 g/ha [8] | pest or weed control at 1000 g/ha [9] | pest or weed control at 1000 g/ha (Setaria faberi (SETFA) [10]) | pest or weed control at 1000 g/ha [11] | pest or weed control at 1000 g/ha [12]
C=Cc1c(N)nc(-c2ccc(F)c(OC)c2)nc1C(=O)OC [Compound 42-61, 4-Amino-5-ethenyl-2-(4-fluoro-3-methoxyphenyl)-6-methoxycarbonyl-pyrimidine] | 20% | 0% | 10% | 20% | 10% | 60% | 30% | 10% | 30% | 40% | 30% | 100%
C=Cc1c(N)nc(-c2ccc(F)c(C(F)(F)F)c2)nc1C(=O)OC [Compound 43-61, 4-Amino-5-ethenyl-2-(4-fluoro-3-trifluoromethyl-phenyl)-6-methoxycarbonyl-pyrimidine] | 70% | 10% | 70% | 50% | 30% | 60% | 70% | 10% | 30% | 20% | 30% | 20%
C=Cc1c(N)nc(-c2ccc(F)c(Cl)c2)nc1C(=O)OC [Compound 44-61, 4-Amino-2-(3-chloro-4-fluorophenyl)-5-ethenyl-6-methoxycarbonyl-pyrimidine] | 40% | 10% | 40% | 30% | 20% | 50% | 90% | 30% | 50% | 60% | 40% | 100%
C=Cc1c(N)nc(-c2ccc(F)c(C)c2)nc1C(=O)OC [Compound 45-61, 4-Amino-5-ethenyl-2-(4-fluoro-3-methylphenyl)-6-methoxycarbonyl-pyrimidine] | 40% | 0% | 40% | 50% | 50% | 100% | 70% | 30% | 40% | 50% | 50% | 100%
C=Cc1c(N)nc(-c2ccc(OC(F)(F)F)cc2)nc1C(=O)OC [Compound 47-61, 4-Amino-5-ethenyl-6-methoxycarbonyl-2-(4-trifluoromethoxy-phenyl)-pyrimidine] | 0% | 0% | 0% | 0% | 0% | 0% | 70% | 10% | 10% | 10% | 10% | 100%
COC(=O)c1nc(-c2ccc(C)c(OC)c2F)nc(N)c1C [Compound 60-41] | 40% | 10% | 10% | 10% | 20% | 0% | 100% | 40% | 30% | 10% | 40% | 100%
C=Cc1c(N)nc(-c2cc(F)cc(Cl)c2)nc1C(=O)OC [Compound 61-61, 4-Amino-2-(3-chloro-5-fluorophenyl)-5-ethenyl-6-methoxycarbonyl-pyrimidine] | 30% | 0% | 0% | 0% | 0% | 0% | 20% | 0% | 0% | 0% | 0% | 10%
C=Cc1c(N)nc(SC)nc1C(=O)OC [Compound 62-61, 4-amino-5-ethenyl-6-methoxycarbonyl-2-methylthiopyrimidine] | 100% | 100% | 0% | 0% | 0% | 100% | 90% | 90% | 0% | 10% | 0% | 100%
C=Cc1c(N)nc(-c2cc(F)c(F)c(F)c2)nc1C(=O)OC [Compound 63-61, 4-Amino-5-ethenyl-6-methoxycarbonyl-2-(3,4,5-trifluorophenyl)-pyrimidine] | 0% | 0% | 0% | 0% | 0% | 0% | 20% | 20% | 0% | 0% | 0% | 0%
C=Cc1ccc(-c2nc(N)c(C=C)c(C(=O)OC)n2)c(F)c1N(C)C [Compound 64-61, 4-amino-2-(3-dimethylamino-4-ethenyl-2-fluorophenyl)-5-ethenyl-6-methoxycarbonylpyrimidine] | 10% | 0% | 10% | 10% | 10% | 30% | 60% | 10% | 10% | 30% | 10% | 100%
COC(=O)c1nc(-c2ccc(C(C)=O)c(OC)c2F)nc(N)c1C(C)=O [Compound 65-53, 4-Amino-2-(2-fluoro-3-methoxy-4-methylcarbonyl-phenyl)-6-methoxycarbonyl-5-methylcarbonyl-pyrimidine] | 0% | 20% | 0% | 0% | 0% | 0% | 70% | 50% | 10% | 10% | 0% | 20%
C=C(OCC)c1ccc(-c2nc(N)c(C(C)=O)c(C(=O)OC)n2)c(F)c1OC [Compound 66-53, 4-amino-2-(4-[1-ethoxyethenyl]-2-fluoro-3-methoxy-phenyl)-6-methoxycarbonyl-5-methylcarbonyl-pyrimidine] | 20% | 30% | 0% | 0% | 0% | 10% | 60% | 30% | 0% | 10% | 0% | 20%
C=Cc1c(N)nc(-c2ccc(F)c(F)c2)nc1C(=O)OC [Compound 67-61, 4-Amino-2-(3,4-difluorophenyl)-5-ethenyl-6-methoxycarbonyl-pyrimidine] | 70% | 50% | 30% | 30% | 30% | 100% | 90% | 60% | 40% | 10% | 20% | 100%
